Series [1] is described as follows: Loading capacity of protein composition C with hydrophilic and hydrophobic agents. Format: physicochemical. As to conditions: in protein composition C, room temperature.
In series [2] the test system is 3T3. The experiment in a line: In Vitro 3T3 NRU Phototoxicity Test (OECD 432). Format: cell-based. The conditions noted are these: for IC50: Mus musculus, NIH3T3, light or radiation study.
The conditions of series [3]: agent in water, in words; cited from earlier work.
Setting [4] is: loading trial to date, not maximum loading.
Setting [5] is: read-out: Cell Viability IC50 Minus UVA.
Setting [6] is: read-out: Cell Viability IC50 Plus UVA.

In brackets after ≈: the same amount, converted by molar mass. Like-named read-outs stand apart in the source and are kept apart here. A value given as a limit tells only on which side of the number the result lay.

In the case of `O=C1O[C@H]([C@@H](O)CO)C(O)=C1O` [Ascorbic acid], the Loading in series [1] (maximum loading) stood at 350 mg/g.

For the compound `O=C(O)c1ccccc1` [Benzoic acid], the Loading in series [1] (setting [4]) is on record as 10 mg/g.

As to `Cn1c(=O)c2c(ncn2C)n(C)c1=O` [Caffeine], the Loading in series [1] (maximum loading) turned out to be 350 mg/g.

Broadly, the IC50 is the concentration that gives 50% inhibition. As to `CN(C)CCCN1c2ccccc2Sc2ccc(Cl)cc21` [Chlorpromazine], in series [2], the “Comment (phototoxicity)” value is given as “Phototoxic”, the “Mean MPE” value turned out to be 0.510 and the “Mean PIF” value turned out to be 70. Also, the IC50 in series [2] (setting [5]) was determined as 7 µg/mL (≈ 22 µM). Further, the IC50 in series [2] (setting [6]) was 0.1 µg/mL.

Take `N[C@@H](Cc1c[nH]cn1)C(=O)O` [Histidine]: in series [2], the “Mean MPE” value is listed as −0.016 and the “Mean PIF” value worked out at 1.0. For the same compound, in series [2] (setting [5]), the IC50 is over 1000 µg/mL. Moreover, the IC50 in series [2] (setting [6]) is over 1000 µg/mL.

For the compound `CN(C)c1ccc2nc3ccc(=[N+](C)C)cc-3sc2c1` [Methylene blue], in series [1] (setting [4]), the Loading was found to be 10 mg/g.

`C=C[C@H]1C[N@@]2CC[C@H]1C[C@H]2[C@H](O)c1ccnc2ccc(OC)cc12` [Quinine sulphate] registered a Loading in series [1] (setting [4]) of 10 mg/g.

Turning to `CC1=C(/C=C/C(C)=C/C=C/C(C)=C/C=O)C(C)(C)CCC1` [Retinal], the “Solubility (water)” value in series [3] is “Nearly insoluble”. The compound also registered a Loading in series [1] (setting [4]) of 1 mg/g.

Regarding `CCCCCCCCCCCCCCCC(=O)OC/C=C(C)/C=C/C=C(C)/C=C/C1=C(C)CCCC1(C)C` [Retinyl palmitate], the “Solubility (water)” value in series [3] was “Insoluble”. In series [1] (setting [4]), this compound yielded a Loading of 25 mg/g.

Compound `N[C@@H](Cc1c[nH]c2ccccc12)C(=O)O` [Tryptophan] showed a Loading in series [1] (maximum loading) of 350 mg/g.
